Where no end group is shown, it is not given here.
Key:
[1] = system: neuroblastoma SH-SY5Y cells; experiment: Mitochondrial morphology (Tom20 immunofluorescence), SH-SY5Y; format: cell-based, human
Protocol: Represented Western blot is cropped from a full blot shown in the Expanded Western Blots section of the Supplementary Information. […] Hoechst 33342 is shown in blue and Tom20 in green (n = 3, 10 images each). Below, quantification of the form factor (degree of branching) and major axis length (length of mitochondria). At least 6,000 mitochondrial fragments were measured for each condition. Mitochondrial reactive oxygen species (ROS) production (MitoSox Red) (c) and mitochondrial membrane potential (TMRM) (d) after overnight treatment with indicated concentrations of peptide or FCCP. Data are from 3 independent experiments per condition normalized to the average no peptide value. (e) Relative mitochondrial ROS (MitoSox Red) signal in GFP positive cells expressing full-length or alanine-substituted P259 at indicated amino acids after two days of transfection. Values are normalized to a GFP empty vector (n = 3, with 3 replicates). […] Data are mean ± s.e. […]
Cells were fixed onto Permanox plastic slides with 4% paraformaldehyde in PBS for 10 minutes at room temperature. Cells were permeabilized in 0.1% Triton X-100 and 1% normal goat serum (blocking buffer) for one hour at room temperature. Permeabilized cells were incubated overnight with primary anti-Tom20 antibody (Santa Cruze Biotech, sc-11415, 1:250 dilution) in a humidified chamber. Slides were subsequently incubated with FITC-conjugated goat anti-rabbit IgG for two hours at room temperature in a light-shielding humidified chamber. Cells were washed with blocking buffer and stained with Hoechst 33342 (Invitrogen, OR, USA, […]). Coverslips were mounted with a Slowfade antifade solution (Invitrogen, OR, USA). Images were acquired using an LSM 700 confocal laser-s canning microsc ope equipped with a Plan Apochromat 63x/1.4 NA oil-immersion objective (Zeiss).
Mitochondrial morphology analysis
High-throughput image analysis of mitochondrial morphology was performed using MATLAB with the Image Processing toolkit. Background illumination, obtained by morphological opening of the image, was subtracted from the original image. The image was then passed through a top - hat transformation to highlight objects from the background followed by a pixel-wis e adaptive low-pas s Wiener filter to remove noise. A 90th percentile threshold was used to convert the image to a binary image. Erroneously large and small objects were removed from the image and morphological features were extracted from the binary objects. Major axis length is defined as th e length of the longest line that can be drawn through a binary object while the minor axis length is defined as the length of the shortest line. The aspect ratio is defined by the major axis length divided by the minor axis length. […]

HD R6/2 model mice = experiment: Survival of R6/2 Huntington's mice; format: in vivo, mouse; settings: 3 mg/Kg/day, continuous subcutaneous osmotic pump, 8 weeks, vs TAT; 15 mice per group
Source text: (a) Quantification of mitochondrial Drp1 content relative to ALDH2 (a mitochondrial matrix enzyme) in the mitochondrial fraction isolated from total brain lysate of wild-type mice (Western blot shown in Fig. S3B) (n = 4 mice). (b) ATP content in brain tissue of wild-type mice (n = 4 mice, 2 replicates). (c) Representative transmission electron microscopy images of the striatum from wild-type mice. […] The first principal component represents 42% of the variation. (f) Local linear embedding dimensionality reduction and visualization of all behaviors collected weekly from TAT- (black) or P259- (purple) treated WT and TAT- (white) treated R6/2 mice over the course of 8 weeks. […] All behavior and survival tests were conducted by an experienced observer who was blinded to the treatment groups. Data are mean ± s.e.
Five-week old R6/2 HD mice and their wild-type littermates (a total of 60 mice) were implanted subcutaneously with a 28-d Alzet osmotic pump with either P259-TAT or TAT control peptide (15 mice per group) to be delivered continuously at a rate of 3 mg/Kg/day, as previously described. All mice were implanted twice for a total of an 8-week treatment. 20 of the WT mice were implanted 3 times for a total of a 12-week treatment at 3 mg/Kg/day. […]
To quantify mitochondrial motility, the images at time 0 and 150 seconds w ere overlaid. […]

[2] = 4 µM TAT-P259, 30-minute treatment, vs TAT, n = 3

YGRKKRRQRRRGSGIIQLPEIVVV-NH2 (C-terminus assumed) [P259]
form factor (degree of branching) [1, 2]: higher form factors | major axis length [1, 2]: increased major axis lengths | mitochondrial morphology ([1]; 4 µM TAT-P259 or 10 µM Mdivi-1, 30-minute treatment, n = 3, 10 images each): more elongated and branched mitochondria | survival of HD R6/2 mice (HD R6/2 model mice): further decline in survival
